We go through 3 compounds from patent publication US8377967B2, “Piperidine derivative” (Nippon Zoki Pharmaceutical Co., Ltd., priority 2008, dated 2013).

Data set [1] concerns the target human histamine H1 receptor (Homo sapiens, UniProt P35367). In words: In vitro human histamine H1 receptor binding experiment ([3H]pyrilamine). The following applies: HEK293A cells stably expressing human histamine H1 receptor, [3H]pyrilamine 3 nmol/L, room temperature 60 minutes. The procedure, abridged:
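HEK293A cells stably expressing human H1 receptor (3×10^5 cells/well) incubated 60 min at room temperature with test substance and 3 nmol/L [3H]pyrilamine in 50 mmol/L Tris-HCl pH 7.5, 0.1% BSA. Filtration and scintillation counting; nonspecific binding with 30 μmol/L pyrilamine.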

Data set [2] deals with T1, cerebral H1 receptor (Mus musculus, UniProt P70174).
T1 construct: the entire brain, except for cerebellum and medulla oblongatae, was rapidly excised; from tissue; host or cells: brain homogenate (without cerebellum and medulla oblongata) of orally dosed ICR male mice
T1 sequence (P70174 whole entry): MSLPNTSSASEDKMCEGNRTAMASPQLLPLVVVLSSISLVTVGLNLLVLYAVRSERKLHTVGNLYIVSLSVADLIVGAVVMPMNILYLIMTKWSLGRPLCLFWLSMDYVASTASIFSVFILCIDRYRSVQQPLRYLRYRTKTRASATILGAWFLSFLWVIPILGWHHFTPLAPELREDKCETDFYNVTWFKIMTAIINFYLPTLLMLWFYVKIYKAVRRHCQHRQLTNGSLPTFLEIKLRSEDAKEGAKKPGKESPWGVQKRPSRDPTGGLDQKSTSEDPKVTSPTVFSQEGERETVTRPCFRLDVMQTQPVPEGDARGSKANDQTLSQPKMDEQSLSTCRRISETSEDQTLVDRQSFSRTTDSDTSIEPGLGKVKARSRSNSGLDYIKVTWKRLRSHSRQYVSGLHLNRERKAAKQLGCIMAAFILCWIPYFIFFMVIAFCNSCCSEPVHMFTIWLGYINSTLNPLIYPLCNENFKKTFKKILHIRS
As to the kind of experiment: Murine cerebral H1 receptor occupying content (ex vivo). The following applies: for ED50: ICR male mouse, oral administration, brain excised after 1 hour, 3H-pyrilamine binding in brain homogenate, larger = lower brain transfer, read-out: ID50 (the source's name); for ID50 (mg/kg)/ ED50 (mg/kg): ID50 of cerebral receptor binding test (Table 20) divided by ED50 of vascular hyperpermeability test (Table 19). In kind it is in vivo.

Data set [3] deals with histamine-induced vascular hyperpermeability reaction. As to the kind of experiment: Rat histamine-induced vascular hyperpermeability reaction (in vivo antihistamine action). Particulars: SD male rat, oral administration 1 hour before intracutaneous histamine, leaked Evans Blue pigment.

human histamine H1 receptor, sequence (P35367 whole entry): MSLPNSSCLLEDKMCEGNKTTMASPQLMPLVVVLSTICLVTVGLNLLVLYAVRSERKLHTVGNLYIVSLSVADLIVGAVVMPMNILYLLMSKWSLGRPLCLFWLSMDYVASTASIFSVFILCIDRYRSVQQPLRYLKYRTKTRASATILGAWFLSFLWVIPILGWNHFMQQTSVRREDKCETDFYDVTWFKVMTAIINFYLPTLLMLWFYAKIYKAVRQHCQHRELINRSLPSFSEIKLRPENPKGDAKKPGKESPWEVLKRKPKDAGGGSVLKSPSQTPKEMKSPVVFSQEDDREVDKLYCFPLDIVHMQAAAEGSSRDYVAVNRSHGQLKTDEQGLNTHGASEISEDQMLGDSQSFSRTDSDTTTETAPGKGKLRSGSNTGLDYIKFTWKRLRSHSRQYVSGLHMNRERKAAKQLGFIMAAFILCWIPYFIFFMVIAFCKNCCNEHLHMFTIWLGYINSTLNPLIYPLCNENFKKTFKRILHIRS

Usually IC50 stands for the midpoint of a concentration-inhibition curve. As for `COC(=O)Cc1ccc2c(c1)C(=C1CCN(CCCSC)CC1)c1sccc1CO2.Cl` [Compound 198, Methyl {4-[1-(3-methylsulfanylpropyl)piperidin-4-ylidene]-4,10-dihydro-9-oxa-3-thiabenzo[f]azulen-6-yl}acetate hydrochloride], in data set [1], the IC50 was determined as 0.59 nM. Also, in data set [2], the ED50 worked out at 22.1 mg/kg and the “ID50 (mg/kg)/ ED50 (mg/kg)” value turned out to be 73.7. In data set [3], this compound displayed an ED50 of roughly 0.3 mg/kg.
Take `COC(=O)Cc1ccc2c(c1)C(=C1CCN(CCSC)CC1)c1sccc1CO2.Cl` [Compound 200, Methyl {4-[1-(2-methylsulfanylethyl)piperidin-4-ylidene]-4,10-dihydro-9-oxa-3-thiabenzo[f]azulen-6-yl}acetate hydrochloride]: the IC50 in data set [1] turned out to be 7.83 nM. The ED50 in data set [2] was 53.4 mg/kg; in data set [3] it was roughly 0.3 mg/kg. Moreover, the “ID50 (mg/kg)/ ED50 (mg/kg)” value in data set [2] amounted to 178.0.
What is called melting point is the temperature, or range, at which the solid turns liquid. In the case of `CN1CCC(=C2c3ccccc3CCc3sc(Br)cc32)CC1` [Compound 212, 4-(2-Bromo-9,10-dihydro-1-thiabenzo[f]azulen-4-ylidene)-1-methylpiperidine], the melting point is 141 to 142 °C.
